pIC50: −log10 of the molar value. Active and inactive are the calls of the source. No cut-off for these calls is given here.
Legend:
[1] = target: T1, 3',5'-cyclic-AMP phosphodiesterase 4D (Homo sapiens, UniProt Q08499); assay: Inhibition of human PDE4D2 (86 to 413 residues) extracted from Escherichia coli BL21 cells using 3H-cAMP/3H-cGMP as substrate preincubated with compound for 15 mins followed by substrate addition by liquid scintillation counter
[2] = Metabolic stability in rat liver microsomes assessed as half life at 1 uM incubated upto 60 mins in presence of NADPH by LC-MS/MS analysis; type: ADME, Microsome
[3] = test system: Mus musculus; assay: Anti-inflammatory activity in IMQ-induced psoriasis in female BALB/c mouse assessed as reduction in IL-17 mRNA level at 20 mg/kg administered topically as 0.3 % ointment pretreated with IMQ for 6 hrs followed by compound addition once daily for 7 days by q-PCR analysis; type: functional, organism-based; settings: time 7.0 day
[4] = test system: Mus musculus; assay: Anti-inflammatory activity in IMQ-induced psoriasis in female BALB/c mouse assessed as reduction in IL-6 mRNA level at 20 mg/kg administered topically as 0.3 % ointment pretreated with IMQ for 6 hrs followed by compound addition once daily for 7 days by q-PCR analysis; type: functional, organism-based; settings: time 7.0 day
[5] = test system: Mus musculus; assay: Anti-psoriasis effect in IMQ-induced female BALB/c mouse model assessed as reduction in spinous layer thickness at 20 mg/kg administered topically as 0.3 % ointment pretreated with IMQ for 6 hrs followed by compound addition once daily for 7 days by H and E staining based analysis; type: functional, organism-based; settings: time 7.0 day
[6] = test system: Mus musculus; assay: Anti-inflammatory activity in IMQ-induced psoriasis in female BALB/c mouse assessed as reduction in IL-1beta mRNA level at 20 mg/kg administered topically as 0.3 % ointment pretreated with IMQ for 6 hrs followed by compound addition once daily for 7 days by q-PCR analysis; type: functional, organism-based; settings: time 7.0 day
[7] = test system: Mus musculus; assay: Anti-inflammatory activity in IMQ-induced psoriasis in female BALB/c mouse assessed as reduction in TNF-alpha mRNA level at 20 mg/kg administered topically as 0.3 % ointment pretreated with IMQ for 6 hrs followed by compound addition once daily for 7 days by q-PCR analysis; type: functional, organism-based; settings: time 7.0 day
[8] = test system: Mus musculus; assay: Anti-psoriasis effect in IMQ-induced female BALB/c mouse model assessed as reduction in abnormal rete ridges at 20 mg/kg administered topically as 0.3 % ointment pretreated with IMQ for 6 hrs followed by compound addition once daily for 7 days by H and E staining based analysis; type: functional, organism-based; settings: time 7.0 day
[9] = test system: HaCaT; assay: Inhibition of CREB phosphorylation in human HaCaT cells assessed as increase in pCREB/CREB ratio at 20 uM incubated for 2 hrs by Western blotting analysis; type: cell-based
[10] = test system: Mus musculus; assay: Anti-inflammatory activity in IMQ-induced psoriasis in female BALB/c mouse assessed as reduction in CCL-20 mRNA level at 20 mg/kg administered topically as 0.3 % ointment pretreated with IMQ for 6 hrs followed by compound addition once daily for 7 days by q-PCR analysis; type: functional, organism-based; settings: time 7.0 day
[11] = test system: Mus musculus; assay: Anti-psoriasis effect in IMQ-induced female BALB/c mouse model assessed as reduced bleeding in dermal papilla layers at 20 mg/kg administered topically as 0.3 % ointment pretreated with IMQ for 6 hrs followed by compound addition once daily for 7 days by H and E staining based analysis; type: functional, organism-based; settings: time 7.0 day
[12] = test system: Mus musculus; assay: Anti-inflammatory activity in IMQ-induced psoriasis in female BALB/c mouse assessed as reduction in CXCL-2 mRNA level at 20 mg/kg administered topically as 0.3 % ointment pretreated with IMQ for 6 hrs followed by compound addition once daily for 7 days by q-PCR analysis; type: functional, organism-based; settings: time 7.0 day
[13] = test system: HaCaT; assay: Anti-psoriasis activity in M5-stimulated human HaCaT cells assessed as restoration of cAMP level at 20 uM incubated for 2 hrs by competitive ELISA; type: functional, cell-based
[14] = test system: Mus musculus; assay: Anti-psoriasis effect in IMQ-induced female BALB/c mouse model assessed as reduction in fibroblast proliferation at 20 mg/kg administered topically as 0.3 % ointment pretreated with IMQ for 6 hrs followed by compound addition once daily for 7 days by H and E staining based analysis; type: functional, organism-based; settings: time 7.0 day
[15] = target: T1, 3',5'-cyclic-AMP phosphodiesterase 4D; assay: Inhibition of PDE4D (unknown origin)

T1 sequence (Q08499 whole entry, the tested form may be a part): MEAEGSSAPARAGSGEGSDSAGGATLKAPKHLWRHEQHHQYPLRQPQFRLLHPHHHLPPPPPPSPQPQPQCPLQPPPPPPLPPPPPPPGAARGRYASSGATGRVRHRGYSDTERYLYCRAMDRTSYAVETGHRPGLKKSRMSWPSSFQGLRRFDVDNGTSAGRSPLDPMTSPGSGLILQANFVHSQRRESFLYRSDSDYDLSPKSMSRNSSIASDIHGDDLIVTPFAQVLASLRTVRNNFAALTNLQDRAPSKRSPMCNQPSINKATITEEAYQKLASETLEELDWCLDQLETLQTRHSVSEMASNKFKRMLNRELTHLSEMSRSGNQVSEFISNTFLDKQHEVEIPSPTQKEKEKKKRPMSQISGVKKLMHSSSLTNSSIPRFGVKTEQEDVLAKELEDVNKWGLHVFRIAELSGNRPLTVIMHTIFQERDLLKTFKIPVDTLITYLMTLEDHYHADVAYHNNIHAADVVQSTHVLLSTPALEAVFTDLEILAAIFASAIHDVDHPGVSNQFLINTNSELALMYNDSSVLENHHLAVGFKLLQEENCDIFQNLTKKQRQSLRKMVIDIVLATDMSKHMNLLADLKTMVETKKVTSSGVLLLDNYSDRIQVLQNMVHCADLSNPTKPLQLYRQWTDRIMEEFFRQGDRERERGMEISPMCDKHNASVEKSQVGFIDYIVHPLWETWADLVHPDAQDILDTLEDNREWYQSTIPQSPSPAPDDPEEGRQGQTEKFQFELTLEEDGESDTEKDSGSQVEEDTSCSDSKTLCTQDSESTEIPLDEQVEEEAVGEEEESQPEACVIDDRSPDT

| SMILES | pIC50 [1] | half-life at 1 µM [2] [min] | further results |
| --- | --- | --- | --- |
| O=C(O)[C@H]1C[C@H](Oc2c(O)ccc3cc(-c4ccc(OC(F)F)c(OCC5CC5)c4)oc23)CN1 | < 7.00 |  |  |
| O=C(O)CCCCOc1c(O)ccc2cc(-c3ccc(OC(F)F)c(OCC4CC4)c3)oc12 | 7.69 | 92.4 |  |
| O=C(Nc1c(Cl)cncc1Cl)c1ccc(OC(F)F)c(OCC2CC2)c1 |  |  | Activity [3]: Active; Activity [4]: Active; Activity [5]: Active; Activity [6]: Active; Activity [7]: Active; Activity [8]: Active; inhibition [9]: Active; Activity [10]: Active; Activity [11]: Active; Activity [12]: Active; Activity [13]: Active; Activity [14]: Active |
| COC(=O)CCCCOc1c(O)ccc2cc(-c3ccc(OC(F)F)c(OCC4CC4)c3)oc12 | 7.63 | 3.6 |  |
| COC(=O)COc1c(O)ccc2cc(-c3ccc(OC(F)F)c(OCC4CC4)c3)oc12 | 7.41 |  |  |
| O=C(O)COc1c(O)ccc2cc(-c3ccc(OC(F)F)c(OCC4CC4)c3)oc12 | 7.63 |  |  |
| O=C(O)[C@@H]1C[C@@H](Oc2c(O)ccc3cc(-c4ccc(OC(F)F)c(OCC5CC5)c4)oc23)CN1 | < 7.00 |  |  |
| COC(=O)[C@@H]1C[C@@H](Oc2c(O)ccc3cc(-c4ccc(OC(F)F)c(OCC5CC5)c4)oc23)CN1 | 7.36 | 3.4 |  |
| Oc1ccc2cc(-c3ccc(OC(F)F)c(OCC4CC4)c3)oc2c1O | 6.38 | 21 | pIC50 [15]: 6.38 |
| COC(=O)[C@@H](N)CCOc1c(O)ccc2cc(-c3ccc(OC(F)F)c(OCC4CC4)c3)oc12 | 7.53 | 4.8 |  |
| COC(=O)[C@@H]1C[C@H](Oc2c(O)ccc3cc(-c4ccc(OC(F)F)c(OCC5CC5)c4)oc23)CN1 | 7.96 | 4 |  |
| O=C(O)CCCOc1c(O)ccc2cc(-c3ccc(OC(F)F)c(OCC4CC4)c3)oc12 | 7.66 | 1.2 |  |
| O=C(O)[C@@H]1C[C@H](Oc2c(O)ccc3cc(-c4ccc(OC(F)F)c(OCC5CC5)c4)oc23)CN1 | < 7.00 |  |  |
| N[C@@H](CCOc1c(O)ccc2cc(-c3ccc(OC(F)F)c(OCC4CC4)c3)oc12)C(=O)O | < 7.00 |  |  |
| COC(=O)CCCOc1c(O)ccc2cc(-c3ccc(OC(F)F)c(OCC4CC4)c3)oc12 | 7.84 | 0.7 |  |
| CCOC(=O)CCCOc1c(O)ccc2cc(-c3ccc(OC(F)F)c(OCC4CC4)c3)oc12 | 7.64 |  |  |
| O=C(O)[C@H]1C[C@@H](Oc2c(O)ccc3cc(-c4ccc(OC(F)F)c(OCC5CC5)c4)oc23)CN1 | < 7.00 |  |  |
| COC(=O)[C@H]1C[C@H](Oc2c(O)ccc3cc(-c4ccc(OC(F)F)c(OCC5CC5)c4)oc23)CN1 | 7.52 | 3.7 |  |

Reference: ChEMBL document CHEMBL6115031, “Structure-Based Optimization of Moracin M as Potent and Selective PDE4 Inhibitors with Antipsoriasis Effects” (J Med Chem, 2025)
